We go through 6 compounds from patent US9687459B2, “Aminocyclobutane derivatives, method for preparing same and the use thereof as drugs” (priority 2012, dated 2017).

Structures are written as SMILES. Where “and” joins values, the source holds several entries; their conditions need not be identical. Identical values can stand only once. Like-named read-outs stand apart in the source and are kept apart here. Bounds are passed on as bounds.

For series [1], the target named is T1, recombinant human NMDA receptors constructed from NR1 and NR2B sub-units (Homo sapiens, UniProt Q05586+Q13224).
T1 construct: expressed in transfected cells; host or cells: Xenopus laevis oocytes injected with cRNA transcribed from pGEMHE constructs
T1 sequence (Q13224 27-1484, other chains not shown): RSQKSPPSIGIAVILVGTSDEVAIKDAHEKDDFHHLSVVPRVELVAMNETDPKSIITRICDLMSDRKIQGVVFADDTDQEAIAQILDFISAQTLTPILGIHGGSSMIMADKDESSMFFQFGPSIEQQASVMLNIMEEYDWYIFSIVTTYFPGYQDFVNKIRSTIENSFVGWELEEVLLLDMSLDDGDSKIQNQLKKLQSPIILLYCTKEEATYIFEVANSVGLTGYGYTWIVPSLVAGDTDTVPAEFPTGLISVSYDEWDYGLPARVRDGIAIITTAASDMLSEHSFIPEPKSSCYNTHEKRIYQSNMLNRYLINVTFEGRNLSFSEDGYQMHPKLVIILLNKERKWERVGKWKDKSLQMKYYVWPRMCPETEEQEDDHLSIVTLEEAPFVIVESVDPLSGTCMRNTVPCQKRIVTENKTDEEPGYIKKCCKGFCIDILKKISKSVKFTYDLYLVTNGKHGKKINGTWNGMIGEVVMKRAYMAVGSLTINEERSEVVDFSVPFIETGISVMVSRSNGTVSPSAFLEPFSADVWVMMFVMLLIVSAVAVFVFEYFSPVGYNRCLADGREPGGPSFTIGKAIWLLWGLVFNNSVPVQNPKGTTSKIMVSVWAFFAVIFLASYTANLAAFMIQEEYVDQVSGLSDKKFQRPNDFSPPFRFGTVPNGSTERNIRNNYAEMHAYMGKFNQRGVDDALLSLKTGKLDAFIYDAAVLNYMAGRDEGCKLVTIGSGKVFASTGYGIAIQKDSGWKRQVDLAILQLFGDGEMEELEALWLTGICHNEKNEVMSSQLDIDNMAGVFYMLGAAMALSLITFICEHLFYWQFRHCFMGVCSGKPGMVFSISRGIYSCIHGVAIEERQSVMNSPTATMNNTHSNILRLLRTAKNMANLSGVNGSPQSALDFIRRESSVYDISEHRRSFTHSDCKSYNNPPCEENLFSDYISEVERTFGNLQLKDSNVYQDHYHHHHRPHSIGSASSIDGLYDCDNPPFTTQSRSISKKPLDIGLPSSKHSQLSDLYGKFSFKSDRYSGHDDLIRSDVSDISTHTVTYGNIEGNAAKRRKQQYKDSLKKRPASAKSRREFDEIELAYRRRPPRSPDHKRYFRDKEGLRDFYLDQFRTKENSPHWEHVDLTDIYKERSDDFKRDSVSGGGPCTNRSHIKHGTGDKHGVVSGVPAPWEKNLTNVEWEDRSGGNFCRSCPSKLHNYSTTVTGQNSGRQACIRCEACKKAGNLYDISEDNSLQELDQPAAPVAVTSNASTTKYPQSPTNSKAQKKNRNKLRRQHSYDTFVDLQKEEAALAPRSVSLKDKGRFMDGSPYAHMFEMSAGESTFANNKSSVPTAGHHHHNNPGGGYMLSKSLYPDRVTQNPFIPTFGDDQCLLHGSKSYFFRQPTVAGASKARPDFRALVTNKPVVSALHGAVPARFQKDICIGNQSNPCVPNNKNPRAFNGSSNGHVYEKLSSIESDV
The series is described as follows: Inhibition of NMDA current in Xenopus ovocytes, two electrode voltage clamp. The series is classed as cell-based. The source says:
We examined the effects of the compounds of the invention on inhibition of the NMDA current in Xenope (Xenopus laevis) expressing recombinant human NMDA receptors constructed from NR1 and NR2B sub-units. The currents produced by stimulation of these receptors by means of endogenous agonists were studied according to the two electrode voltage clamp technique reported by Planells-Cases et al., 2002, J. Pharmacol. Exp. Ther., 302, 163-173.
Protocol: ovocytes were surgically removed from adults xenopes, enzymatically defolliculated and stored at 17° C. in a solution containing: 96 mM of NaCl, 2 mM of KCl, 1 mM of MgCl2, 1.8 mM of CaCl2 and 5 mM of HEPES at pH 7.5 (NaOH) and 50 mg/L of gentamycin (Heusler et al., 2005, Neuropharmacology, 49, 963-976). Complementary DNA (cDNA) coding for the NR1 sub-unit was cloned by PCR using primers targeted for start and end codons in the published sequence (Genebank access number M_007327). cDNA coding for the NR2B sub-unit was synthesised by Eurogentec (Seraing, Belgium) according to the published sequence (gene bank access number NM_000834). The NR1 and NR2B cDNA was then sub-cloned in the pGEMHE high expression carrier for in vitro transcription of cDNA. cRNA coding for NR1 and NR2B was prepared according to the method described by Heusler et al. (already cited). Aliquots of the cRNA solution were injected into the ovocytes ([…] for NR1 and 40-1000 pg/ovocyte for NR2B). Each ovocyte was injected with 100 nL of a solution containing: 4 mM of Na^+BAPTA (pH 7.2) in order to block all residual chlorine currents. After stabilisation, NMDA currents were activated by superfusion of glutamate and glycine each at a concentration of 10 μM. The compounds to be tested were then superfused in a Ringer Ba^++ solution at increasing concentrations in the presence of glutamate and glycine (4 to 5 concentrations were tested per ovocyte). The concentration-response codes obtained are analysed for each ovocyte by non-linear regression and a pIC50 value was calculated. pIC50 designates the negative logarithm of the compound concentration tested needed to reduce the amplitude of the NMDA current by half.
(Two-electrode voltage clamp holds a large cell at a set potential and records current.)

Series [2] deals with pre-pulse inhibition of the jolt reflex in the rat. The series is described as follows: Pre-pulse inhibition test for the jolt reflex (PPI). The series is classed as in vivo. The following applies: FIG. 1. The text has this:
We have already highlighted the importance of normalising the NMDA receptor function, in other words blocking its excessive activity without interfering, or interfering as little as possible, with its normal physiological functioning. As a marker of the interaction between the products of the invention and the normal functioning of the NMDA receptors, we chose the pre-pulse inhibition test for the jolt reflex (PPI). This test represents a measurement of the organism's capacity to filter non-essential information. Non-competitive and competitive antagonists as well as channel blockers reduce PPI in the rat (Depoortere et al., 1999, Behav. Pharmacol., 10, 51-62), such a reduction being considered to be predictive of the psychotomimetic effects of NMDA antagonists in humans.
Protocol: Male rats (Sprague-Dawley Iffa Credo, Les Oncins, France) were placed in 18.4 cm by 8.8 cm diameter cylinders resting on a base below which a piezoelectric accelerometer is fixed to act as a detector of the jolt reaction. This is enclosed in a box with a loudspeaker attached to the ceiling to deliver sound pulses and pre-pulses, and is acoustically isolated (SR LAB, San Diego Instruments, San Diego, USA). All the events are controlled by means of software. […] Three types of sound stimuli (white noise) are delivered; 1) a pulse of 118 dB (P, duration 40 msec); 2) a pre-pulse of 78 dB (duration 20 msec) followed by a pulse of 118 dB (pP); and 3) no pre-pulse or pulse (NP). The interval between the beginning of the pre-pulse and the beginning of the pulse is 100 msec, with background noise at 70 dB. The jolt reaction is recorded for 100 ms, 100 ms after the beginning of the stimulus (pP or NP) by a numerical/analogue acquisition card (12 bits). The session starts with a stimulus-free period of 5 min after which animals are exposed to 10 P (separated on average by 15 s and intended to stabilise the jolt reaction). The reactions recorded with these 10 P are not used for the calculation. After this, 10 P, 10 pP and 3 NP are delivered in a semi-random order with an average interval of 15 s in between. At the end of this pre-test, rats undergo an ip injection of the compounds to be tested or physiological serum as a control and are returned to their cages. The actual test session (similar on every point to the pre-test) is carried out 60 minutes later. The percentage inhibition of the pre-pulse is calculated using data from this test session according to the formula: (median amplitude P−median amplitude pP)×100/(median amplitude P).

Series [3] deals with acute inflammatory pain model in the rat. The following applies: for Paw licking % reduction at 40 mg/kg / Paw licking inhibition at 40 mg/kg (in words): 40 mg/kg ip, late phase; for Paw licking MSD (minimum significant dose): ip 15 min before formaldehyde, late phase 22.5-27.5 min.
In series [4] the test system is forced swimming model in the rat. The series is described as follows: Forced swimming test, immobility time. The series is classed as in vivo. The following applies: for Immobility time % reduction at 20 mg/kg: 20 mg/kg ip; for ED50: ip 30 min before test, dose reducing immobility time by half relative to controls. On the procedure:
This height allows the rats to swim or to float without their paws touching the base of the cylinder. 24 hours before the test day, the rats are placed in the cylinder for 15 min, after which time they no longer attempt to escape and remain immobile at the surface. On the test day, the compound to be tested or the carrier is injected (ip) into the animal which is placed in the cylinder 30 min later. The duration of immobility (defined when the rat simply floats and only makes small movements to stay at the surface) is measured with an accuracy of 0.1 s for 5 minutes.

[5] abbreviates: ovocytes expressing human NR1/NR2B, glutamate and glycine each 10 μM, read-out: Inhibition of NMDA current pIC50 (converted).

Regarding `CCN(CC)C(=O)[C@]1(c2ccccc2)C[C@@H](N)C1` [Compound 1a1, trans-3-amino-N,N-diethyl-1-phenylcyclobutanecarboxamide], the IC50 in series [1] (setting [5]) was 501 nM. Also, the “Reduction in PPI at 20 mg/kg” value in series [2] (20 mg/kg ip, test 60 min after injection) turned out to be 30%. Besides, in series [2] (40 mg/kg), the “PPI reduction at 40 mg/kg (in words)” value is on record as “modest”. In series [2] (ip), the “Dose from which PPI is disrupted” value is recorded as ≥ 20 mg/kg. Moreover, in series [3], the “Paw licking % reduction at 40 mg/kg” value worked out at 100%, the “Paw licking inhibition at 40 mg/kg (in words)” value was “completely inhibited” and the “Paw licking MSD (minimum significant dose)” value is on record as 10 mg/kg.
For the compound `CCN(CC)C(=O)[C@]1(c2cccc(OC)c2)C[C@@H](N)C1` [Compound 1d, trans-3-amino-N,N-diethyl-1-(3-methoxyphenyl)-cyclobutanecarboxamide], the IC50 in series [1] (setting [5]) is 398 nM.
Still for that read-out and setting: as for `CCN(CC)C(=O)[C@]1(c2ccccc2F)C[C@@H](N)C1` [Compound 1b, trans-3-amino-N,N-diethyl-1-(2-fluorophenyl)-cyclobutanecarboxamide], the figure is 501 nM.
Usually ED50 stands for the dose that gives a 50% effect, or the effect in half of the subjects. For the compound `CNC1(c2ccccc2Cl)CCCCC1=O` (stereo not drawn) [ketamine, reference compound], the IC50 in series [1] was 794 nM. Moreover, in series [4], the “Immobility time % reduction at 20 mg/kg” value was determined as 50% and the 50% effect level (ED50) was put at a dose of 20 mg/kg. The “Effect on PPI at 20 mg/kg (in words)” value in series [2] (20 mg/kg ip) is listed as “total disappearance of PPI”. Besides, in series [3] (40 mg/kg), the “Paw licking % reduction at 40 mg/kg” value was 74% and 75%. Besides, in series [3], the “Paw licking MSD (minimum significant dose)” value is given as 40 mg/kg.
Take `CCN(CC)C(=O)[C@]1(c2cccc(F)c2)C[C@@H](N)C1` [Compound 1c, trans-3-amino-N,N-diethyl-1-(3-fluorophenyl)-cyclobutanecarboxamide]: the IC50 in series [1] (setting [5]) was 158 nM. In series [4], the “Immobility time % reduction at 20 mg/kg” value is 83% and the 50% effective dose (ED50) amounted to 13 mg/kg.
On to `CCN(CC)C(=O)[C@]1(c2cccc(Cl)c2)C[C@@H](N)C1` [Compound 1e, trans-3-amino-N,N-diethyl-1-(3-chlorophenyl)-cyclobutanecarboxamide], for which the IC50 in series [1] was 79.4 nM. Also, in series [4], the “Immobility time % reduction at 20 mg/kg” value was determined as 77% and it took a dose of 15 mg/kg to reach the 50% effect level (ED50). Also, in series [3], the “Paw licking % reduction at 40 mg/kg” value came out at 100%, the “Paw licking inhibition at 40 mg/kg (in words)” value is “completely inhibited” and the “Paw licking MSD (minimum significant dose)” value worked out at 10 mg/kg.
